Laboratory results reported in patent US20190053492A1, “SUBSTITUTED PYRIDINE COMPOUNDS AS PESTICIDES” (Bayer CropScience Aktiengesellschaft, priority 2016, published 2019).
Like-named read-outs stand apart in the source and are kept apart here.

Tests used:
[1] = log P by HPLC on reversed-phase column (C 18), EEC Directive 79/831 Annex V.A8; type: physicochemical; settings: 55° C.; for LOGP_HCOOH: log P (HCOOH); for chromatographic logP: reversed-phase HPLC column (C 18)
Protocol: Temperature: 55° C. […] Called log P (HCOOH) in the table. […] Called log P (neutral) in the table.

Phaedon cochleariae = Phaedon cochleariae spray test; type: in vivo; settings: after 7 days, Chinese cabbage leaf discs; for pest or weed control at 500 g/ha: Phaedon cochleariae, foliar, 168 h, read-out: efficacy (beetle larvae killed)
Outline: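 Larval kill read at day 7 as percent, where 100% means every larva dead and 0% none; larvae were placed on dried Brassica pekinensis leaf discs previously sprayed with the formulation (acetone/dimethylformamide solvent, alkylaryl polyglycol ether emulsifier, water).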

Spodoptera frugiperda = Spodoptera frugiperda spray test; type: in vivo; settings: after 7 days, maize leaf discs
Outline: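 Efficacy in % was scored at 7 days against armyworm caterpillars placed on dried, compound-sprayed Zea mays leaf discs. Compound was dissolved in acetone/dimethylformamide and diluted in water with 1000 ppm alkylaryl polyglycol ether. 100% means all caterpillars were killed.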

[2] = acidic range pH 2.7, 0.1% aqueous formic acid and acetonitrile, reversed-phase column (C 18)
[3] = log P, neutral range, HPLC on reversed-phase column (C 18)
[4] = log P (neutral), HPLC reversed-phase column (C 18)
[5] = pH 2.7, LC-MS acidic range, pH 2.7, 0.1% formic acid/acetonitrile, read-out: log P (acidic) / log P (HCOOH)
[6] = pH 7.8, LC-MS neutral range, pH 7.8, ammonium hydrogencarbonate/acetonitrile, read-out: log P (neutral)
[7] = Spodoptera frugiperda, foliar, 168 h, application rate 500 g/ha, read-out: efficacy (caterpillars killed)
[8] = acidic range at pH 2.7, 0.1% aqueous formic acid and acetonitrile, HPLC on reversed-phase column (C 18)

SMILES	LOGP_HCOOH [1, 2]	LOGP_NEUTRAL [1, 3]	LOGP_NEUTRAL [1, 4]	chromatographic logP [1, 5]	chromatographic logP [1, 6]	LOGP_HCOOH [1, 8]	efficacy (beetle larvae killed) (Phaedon cochleariae; application rate 500 g/ha) [%]	efficacy (caterpillars killed) (Spodoptera frugiperda; application rate 100 g/ha) [%]	efficacy (caterpillars killed) (Spodoptera frugiperda; application rate 500 g/ha) [%]	efficacy (beetle larvae killed) (Phaedon cochleariae; application rate 100 g/ha) [%]	pest or weed control at 500 g/ha (Phaedon cochleariae; application rate 500 g/ha) [%]	pest or weed control at 100 g/ha (Spodoptera frugiperda; Spodoptera frugiperda, foliar, 168 h, application rate 100 g/ha, read-out: efficacy (caterpillars killed)) [%]	pest or weed control at 500 g/ha (Spodoptera frugiperda; [7]) [%]
N#Cc1ccc(/C=N/NC(=O)c2cc(-c3ccc(OC(F)(F)F)cc3)cc(NC(=O)C3CC3)n2)cc1 [Example I-252, N-(6-{[(2E)-2-(4-Cyanobenzylidene)hydrazino]carbonyl}-4-[4-(trifluoromethoxy)phenyl]pyridin-2-yl)cyclopropanecarboxamide]	3.88	–	3.83	3.88	3.83	–	–	–	–	–	100	83	100
CC1(C(=O)Nc2cc(-c3ccc(OC(F)(F)F)cc3)cc(C(=O)NCc3ccc(C#N)cc3)n2)CC1 [Example I-147]	–	–	–	–	–	4.33	100	100	100	100	–	–	–
CC(NC(=O)c1cc(-c2ccc(OC(F)(F)F)cc2)cc(NC(=O)C2CC2)n1)c1ccc(C#N)cc1 (racemic) [Example I-158]	–	4.02	–	–	–	4.17	100	100	100	83	–	–	–
N#Cc1ccc(CNC(=O)c2cc(-c3ccc(OC(F)(F)C(F)F)cc3)cc(NC(=O)C3CC3)n2)cc1 [Example I-153]	–	3.48	–	–	–	3.60	100	100	100	100	–	–	–
CC(NC(=O)c1cc(-c2ccc(C(F)(F)F)cc2)cc(NC(=O)C2CC2)n1)C1CC1 (stereo not drawn) [Example I-031]	4.17	4.06	–	–	–	–	100	–	100	–	–	–	–
N#Cc1ccc(CNC(=O)c2cc(-c3c(Cl)cc(C(F)(F)C(F)(F)F)cc3Cl)cc(NC(=O)C3CC3)n2)cc1 [Example I-268]	4.05	–	–	–	–	–	83	100	100	83	–	–	–
N#Cc1ccc(CNC(=O)c2cc(-c3ccc(OC(F)(F)F)cc3)cc(NC(=O)C3(Cl)CC3)n2)cc1 [Example I-205]	–	4.62	–	–	–	–	100	100	100	–	–	–	–
N#Cc1ccc(CNC(=N)c2cc(-c3ccc(OC(F)(F)F)cc3)cc(NC(=O)C3CC3)n2)cc1 [Example I-258, N-{6-[N-(4-Cyanobenzyl)carbamimidoyl]-4-[4-(trifluoromethoxy)phenyl]pyridin-2-yl}cyclopropanecarboxamide]	2.08	–	4.24	2.08	4.24	–	–	–	–	–	83	–	83
CC(NC(=O)c1cc(-c2ccc(C(F)(F)F)cc2)cc(N(C(=O)C2CC2)C(=O)C2CC2)n1)c1ccc(C#N)cc1 (stereo not drawn) [Example I-039]	4.36	4.31	–	–	–	–	100	100	100	100	–	–	–
N#Cc1ccc(CNC(=O)c2cc(-c3ccc(SC(F)(F)F)cc3)cc(NC(=O)C3CC3)n2)cn1 [Example I-090]	3.79	3.72	–	–	–	–	100	83	100	–	–	–	–
O=C(NC1CC1)c1cc(-c2ccc(I)cc2)cc(NC(=O)C2CC2)n1 [Example I-035]	3.48	3.39	–	–	–	–	100	–	100	–	–	–	–
O=C(NCc1ccc(Cl)c(F)c1)c1cc(-c2ccc(C(F)(F)F)cc2)cc(NC(=O)C2CC2)n1 [Example I-056]	4.57	4.44	–	–	–	–	100	100	100	–	–	–	–
O=C(NCCC(F)(F)F)c1cc(-c2ccc(C(F)(F)C(F)(F)F)c(F)c2)cc(NC(=O)C2CC2)n1 [Example I-246]	4.37	–	4.32	–	–	–	100	100	100	83	–	–	–
O=C(NCc1ccc(-c2nnco2)cc1)c1cc(-c2ccc(OC(F)(F)F)cc2)cc(NC(=O)C2CC2)n1 [Example I-112]	–	3.37	–	–	–	3.41	100	83	100	–	–	–	–
N#Cc1ccc(CNC(=O)c2cc(-c3c(Cl)cc(C(F)(F)C(F)(F)F)c(F)c3Cl)cc(NC(=O)C3CC3)n2)cc1 [Example I-276]	4.57	–	–	–	–	–	100	–	83	–	–	–	–

Now from value to compound, other results behind:

LOGP_HCOOH [1, 2]	LOGP_NEUTRAL [1, 3]	LOGP_NEUTRAL [1, 4]	chromatographic logP [1, 5]	chromatographic logP [1, 6]	LOGP_HCOOH [1, 8]	SMILES	efficacy (beetle larvae killed) (Phaedon cochleariae; application rate 500 g/ha) [%]	efficacy (caterpillars killed) (Spodoptera frugiperda; application rate 100 g/ha) [%]	efficacy (caterpillars killed) (Spodoptera frugiperda; application rate 500 g/ha) [%]	efficacy (beetle larvae killed) (Phaedon cochleariae; application rate 100 g/ha) [%]	pest or weed control at 500 g/ha (Phaedon cochleariae; application rate 500 g/ha) [%]	pest or weed control at 100 g/ha (Spodoptera frugiperda; Spodoptera frugiperda, foliar, 168 h, application rate 100 g/ha, read-out: efficacy (caterpillars killed)) [%]	pest or weed control at 500 g/ha (Spodoptera frugiperda; [7]) [%]
5.01	4.89	–	–	–	–	C[C@H](NC(=O)c1cc(-c2ccc(OC(F)(F)F)cc2)cc(NC(=O)C2CC2)n1)c1ccc(C(F)(F)F)cc1 [Example I-061]	100	100	100	–	–	–	–
4.03	–	3.98	–	–	–	N#Cc1ccc(CNC(=O)c2cc(-c3ccc(OC(F)(F)C(F)C(F)(F)F)cc3)cc(NC(=O)C3CC3)n2)cc1 (stereo not drawn) [Example I-254]	100	83	100	100	–	–	–
–	–	–	–	–	3.63	C#CC1(NC(=O)c2cc(-c3ccc(OC(F)(F)F)cc3)cc(NC(=O)C3CC3)n2)CC1 [Example I-126]	100	83	100	–	–	–	–
–	–	–	–	–	4.17	O=C(NC1(C(F)(F)F)CC1)c1cc(-c2ccc(OC(F)(F)F)cc2)cc(NC(=O)C2CC2)n1 [Example I-137]	100	100	100	100	–	–	–
3.50	–	3.45	3.5	3.45	–	CC(C)ONC(=O)c1cc(-c2ccc(OC(F)(F)F)cc2)cc(NC(=O)C2CC2)n1 [Example I-237, 6-[(Cyclopropylcarbonyl)amino]-N-isopropoxy-4-[4-(trifluoromethoxy)phenyl]pyridine-2-carboxamide]	–	–	–	–	83	–	100
–	–	–	–	–	3.58	COC1(NC(=O)c2cc(-c3ccc(OC(F)(F)F)cc3)cc(NC(=O)C3CC3)n2)CC1 [Example I-140]	100	100	100	100	–	–	–
4.15	4.02	–	–	–	–	N#Cc1cc(F)c(CNC(=O)c2cc(-c3ccc(OC(F)(F)F)cc3)cc(NC(=O)C3CC3)n2)cc1F [Example I-086]	100	100	83	–	–	–	–
–	4.72	–	–	–	4.90	O=C(N[C@H]1CC[C@@H](C(F)(F)F)CC1)c1cc(-c2ccc(OC(F)(F)F)cc2)cc(NC(=O)C2CC2)n1 [Example I-145]	100	100	100	100	–	–	–
–	3.74	–	–	–	3.87	N#CC1CCC(CNC(=O)c2cc(-c3ccc(OC(F)(F)F)cc3)cc(NC(=O)C3CC3)n2)CC1 (stereo not drawn) [Example I-161]	100	100	100	83	–	–	–
–	4.60	–	–	–	4.77	O=C(NC1CCC(C(F)(F)F)CC1)c1cc(-c2ccc(OC(F)(F)F)cc2)cc(NC(=O)C2CC2)n1 (stereo not drawn) [Example I-146]	100	–	83	–	–	–	–
